This note sets out measurements from US5981498A, “Agent for improving the blood circulation” (Kabushiki Kaisha Hayashibara Seibutsu Kagaku Kenkyujo, priority 1997, dated 1999).

Test [1] relates to lumbago or chronic stiffness in the shoulder. Kind of test: Clinical test, cataplasm (Table 1). The format is in vivo, human. To be noted: versus sucrose; Tables 1 and 2. As for the experimental part: A clinical paramedic conducted the experiment and, after the experiment, asked the therapeutic effect and the side effects of the volunteers. The therapeutic effect was evaluated with four ranks of "very effective", "effective", "unchanged", and "worsened", and the effectivity (%) was calculated as a percentage of the number of volunteers, who answered "very effective" and "effective", to the total number of volunteers.

The subject of test [2] is blood flow, dorsum cucullaris of volunteer with stiffness in both shoulders. Kind of test: Plethysmogram / volume pulse wave (PTG), improvement of blood circulation. To be noted: similar experiment on vitamin P, cataplasm, MV and PTG. The format is in vivo, human.
Text: MV is an apparatus for recording micro-vibration of ballistic components accompanied by muscular fibers in vivo and heartbeat by converting the micro-vibration into an electrodynamic phenomenon where peaks are detected at a high-frequency region in patients with muscular rigidity such as stiffness in the shoulder, and the peaks are shifted to a lower-frequency region as the muscular rigidity is relived. PTG is an apparatus for detecting blood flow as a vascular change in pressure and for expressing change in volume as a wave-height level; When the wave-height level is increased as the increment of blood flow in a stiff part in the shoulder, meaning that blood circulation is improved.
The patient was monitored for both MV and PTG by a polygraph for 20 min, and the data were recorded by a data recorder.
On the next morning, the cataplasm was removed from the volunteer while they were allowed to lay on the bed, followed by attaching pickups to the same part as of the cataplasm for measuring and recording MV and PTG for 30 min and for two hours, respectively, similarly as above.

Consider `OC[C@H]1O[C@H](O[C@H]2O[C@H](CO)[C@@H](O)[C@H](O)[C@H]2O)[C@H](O)[C@@H](O)[C@@H]1O` [trehalose], for which, in test [1], the “effect of trehalose on the muscular-rigidity-relieving activity of glycosyl vitamin P” value is “significantly augmented”.

On to vitamin P, for which the “effect as compared with control” value in test [2] is “substantially showed no remarkable effect”.
